Like-named read-outs stand apart in the source and are kept apart here.
How the values were obtained:
[1] = tested on: TNFα; experiment: Cot Monocyte TNFα Cell Based Assay
[2] = target: Human Cot (Homo sapiens (Human), UniProt P41279); experiment: High Throughput Cot Biochemical Assay
[3] = Homo sapiens, Monocyte, read-out: EC50 TNF, LPS-stimulated human monocytes, TNFα TR-FRET
[4] = IC50 HTRF, Cot HTRF (TR-FRET KinEASE) biochemical assay, 400 μM ATP
[5] = Homo sapiens, Monocyte, read-out: EC50 TNF, LPS-stimulated human monocytes, TNFα
[6] = IC50 HTRF, Cot HTRF (TR-FRET) biochemical assay
[7] = read-out: EC50 TNF, LPS-stimulated human monocytes, TNFα
[8] = read-out: IC50 HTRF, Cot HTRF (TR-FRET) biochemical assay
[9] = read-out: EC50 TNF, LPS-stimulated human monocytes, TNFα TR-FRET
[10] = read-out: IC50 HTRF, Cot HTRF (TR-FRET KinEASE) biochemical assay, 400 μM ATP

Human Cot, sequence (P41279 30-397): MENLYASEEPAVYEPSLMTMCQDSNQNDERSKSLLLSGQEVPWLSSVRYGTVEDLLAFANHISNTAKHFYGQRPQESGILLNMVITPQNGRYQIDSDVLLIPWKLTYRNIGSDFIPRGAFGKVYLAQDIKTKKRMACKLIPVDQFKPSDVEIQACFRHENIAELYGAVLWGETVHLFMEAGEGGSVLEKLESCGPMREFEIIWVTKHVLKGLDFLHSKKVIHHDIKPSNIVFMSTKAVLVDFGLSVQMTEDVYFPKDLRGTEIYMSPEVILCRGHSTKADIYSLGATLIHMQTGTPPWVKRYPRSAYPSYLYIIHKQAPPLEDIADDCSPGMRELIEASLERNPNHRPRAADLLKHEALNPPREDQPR

With `CC[C@@H](Nc1c(C#N)cnc2c(Cl)cc(N[C@@H](c3ccc(F)nc3C)c3nnn(C4(C(F)(F)F)CC4)c3F)cc12)c1ccccc1` [Example 950, 8-chloro-6-(((S)-(5-fluoro-1-(1-(trifluoromethyl)cyclopropyl)-1H-1,2,3-triazol-4-yl)(6-fluoro-2-methylpyridin-3-yl)methyl)amino)-4-(((R)-1-phenylpropyl)amino)quinoline-3-carbonitrile] the EC50 [1, 3] was 260 nM and the IC50 [2, 4] was 17 nM.
In the case of `CC(C)n1cc([C@@H](Nc2cc(Cl)c3ncc(C#N)c(Nc4ccc(F)c(Cl)c4)c3c2)C2=CCOCC2)nn1` [Example 244, (S)-8-chloro-4-((3-chloro-4-fluorophenyl)amino)-6-(((3,6-dihydro-2H-pyran-4-yl)(1-isopropyl-1H-1,2,3-triazol-4-yl)methyl)amino)quinoline-3-carbonitrile], the EC50 [1, 5] is reported as 328 nM and the IC50 [2, 6] is reported as 4 nM.
Compound `Cn1ccc2c([C@H](Nc3cc(Cl)c4ncc(C#N)c(NCC(C)(C)C(F)(F)F)c4c3)c3cn(C4(C(F)F)CC4)nn3)cccc2c1=O` [Example 724, (S)-8-chloro-6-(((1-(1-(difluoromethyl)cyclopropyl)-1H-1,2,3-triazol-4-yl)(2-methyl-1-oxo-1,2-dihydroisoquinolin-5-yl)methyl)amino)-4-((3,3,3-trifluoro-2,2-dimethylpropyl)amino)quinoline-3-carbonitrile] has an EC50 [1, 5] of 44 nM and an IC50 [2, 6] of 3 nM.
Compound `Cn1ccc2c([C@H](Nc3cc(C#N)c4ncc(C#N)c(NCC(C)(C)C(F)(F)F)c4c3)c3cn(C4(C(F)F)CC4)nn3)cccc2c1=O` [Example 838, (S)-6-(((1-(1-(difluoromethyl)-cyclopropyl)-1H-1,2,3-triazol-4-yl)(2-methyl-1-oxo-1,2-dihydroisoquinolin-5-yl)methyl)amino)-4-((3,3,3-trifluoro-2,2-dimethylpropyl)-amino)quinoline-3,8-dicarbonitrile] has an EC50 [1, 3] of 84 nM and an IC50 [2, 4] of 3 nM.
Compound `Cn1cnc2cccc([C@H](Nc3cc(C#N)c4ncc(C#N)c(NCC(C)(C)C)c4c3)c3cn(C4(C(F)F)CC4)nn3)c21` [Example 523] has an EC50 [1, 7] of 63 nM and an IC50 [2, 8] of 2 nM.
`Cc1nc(F)ccc1[C@H](Nc1cc(C#N)c2ncc(C#N)c(NCC(C)(C)C)c2c1)c1cn(CC(F)F)nn1` [Example 634, (S)-6-(((1-(2,2-dinuoroethyl)-1H-1,2,3-triazol-4-yl)(6-fluoro-2-methylpyridin-3-yl)methyl)amino)-4-(neopentylamino)quinoline-3,8-dicarbonitrile] showed an EC50 [1, 7] of 43 nM and an IC50 [2, 8] of 2 nM.
For `Cc1ncccc1[C@H](Nc1cc(Cl)c2ncc(C#N)c(N[C@H](CO)c3ccccc3)c2c1)c1c[nH]nn1` [Example 218, 8-chloro-4-(((S)-2-hydroxy-1-phenylethyl)amino)-6-(((S)-(2-methylpyridin-3-yl)(1H-1,2,3-triazol-4-yl)methyl)amino)quinoline-3-carbonitrile], the EC50 [1, 5] was 2710 nM and the IC50 [2, 6] was 26 nM.
For `Cc1nc(F)ccc1[C@H](Nc1cc(C#N)c2ncc(C#N)c(NCC(C)(C)C)c2c1)c1nnn(C2CC2)c1C1CC1` [Example 857, (S)-6-(((l,5-dicyclopropyl-1H-1,2,3-triazol-4-yl)(6-fluoro-2-methylpyridin-3-yl)methyl)amino)-4-(neopentylamino)quinoline-3,8-dicarbonitrile], the EC50 [1, 9] was 180 nM and the IC50 [2, 10] was 4 nM.
For `CC(C)(C)N1CCC(n2cc([C@@H](Nc3cc(Cl)c4ncc(C#N)c(Nc5ccc(F)c(Cl)c5)c4c3)c3ccc(F)nc3)nn2)CC1` [Example 347, (S)-6-(((1-(1-(tert-butyl)piperidin-4-yl)-1H-1,2,3-triazol-4-yl)(6-fluoropyridin-3-yl)methyl)amino)-8-chloro-4-((3-chloro-4-fluorophenyl)amino)quinoline-3-carbonitrile], the EC50 [1, 5] was 278 nM and the IC50 [2, 6] was 4 nM.
Work on `Cn1cc2c([C@H](Nc3cc(Cl)c4ncc(C#N)c(NCC(C)(C)C)c4c3)c3cn(C4(C(F)F)CC4)nn3)cccc2n1` [Example 497, (S)-8-chloro-6-(((1-(1-(difluoromethyl)-cyclopropyl)-1H-1,2,3-triazol-4-yl)(2-methyl-2H-indazol-4-yl)methyl)amino)-4-(neopentylamino)quinoline-3-carbonitrile] yielded an EC50 [1, 5] of 379 nM and an IC50 [2, 6] of 6 nM.
With `CC(C)(C)CNc1c(C#N)cnc2c(Cl)cc(N[C@@H](c3ccc4cccnc4c3)c3cn(C4(C(F)(F)F)CC4)nn3)cc12` [Example 698, (S)-8-chloro-4-(neopentylamino)-6-((quinolin-7-yl(1-(1-(trifluoromethyl)cyclopropyl)-1H-1,2,3-triazol-4-yl)methyl)amino)quinoline-3-carbonitrile] the EC50 [1, 5] was 684 nM and the IC50 [2, 6] was 27 nM.
Compound `Cc1ccc([C@H](Nc2cc(C#N)c3ncc(C#N)c(NCC(C)(C)C)c3c2)c2cn(C3(C(F)(F)F)CC3)nn2)cn1` [Example 828, (S)-6-(((6-methylpyridin-3-yl)(1-(1-(trifluoromethyl)cyclopropyl)-1H-1,2,3-triazol-4-yl)methyl)amino)-4-(neopentylamino)quinoline-3,8-dicarbonitrile] has an EC50 [1, 3] of 253 nM and an IC50 [2, 4] of 22 nM.
In the case of `CC(C)(C)CNc1c(C#N)cnc2c(C#N)cc(N[C@H](c3cn(C4(CF)CC4)nn3)c3cccc4cnccc34)cc12` [Example 569], the EC50 [1, 7] is reported as 171 nM and the IC50 [2, 8] is reported as 7 nM.
Compound `CC(C)(C)CNc1c(C#N)cnc2c(Cl)cc(N[C@H](c3cn(C4(C(F)F)CC4)nn3)c3ccc(F)c4cnccc34)cc12` [Example 652, (S)-8-chloro-6-(((1-(1-(difluoromethyl)cyclopropyl)-1H-1,2,3-triazol-4-yl)(8-fluoroisoquinolin-5-yl)methyl)amino)-4-(neopentylamino)quinoline-3-carbonitrile] has an EC50 [1, 5] of 40 nM and an IC50 [2, 6] of 4 nM.
`Cn1cnc2cccc([C@H](Nc3cc(C#N)c4ncc(C#N)c(NCC(C)(C)C)c4c3)c3cn(C4(C(F)(F)F)CC4)nn3)c21` [Example 484, (S)-6-(((1-methyl-1H-benzo[d]imidazol-7-yl)(1-(1-(trifluoromethyl)cyclopropyl)-1H-1,2,3-triazol-4-yl)methyl)amino)-4-(neopentylamino)quinoline-3,8-dicarbonitrile] was tested, and the EC50 [1, 5] was 73 nM and the IC50 [2, 6] was 3 nM.
`CCN1CCc2c([C@H](Nc3cc(Cl)c4ncc(C#N)c(Nc5ccc(F)c(Cl)c5)c4c3)c3cn(C4COC4)nn3)csc2C1` [Example 278, (S)-8-chloro-4-((3-chloro-4-fluorophenyl)amino)-6-(((6-ethyl-4,5,6,7-tetrahydro-thieno[2,3-c]pyridin-3-yl)(1-(oxetan-3-yl)-1H-1,2,3-triazol-4-yl)methyl)amino)quinoline-3-carbonitrile] was tested, and the EC50 ([1]; Homo sapiens, Monocyte, read-out: EC50 TNF) was 269 nM and the IC50 [2] was 3 nM.
`CC(C)(C)CNc1c(C#N)cnc2c(Cl)cc(N[C@H](c3cn(C4(C(F)(F)F)CC4)nn3)c3cccc4c(=O)n(CC(F)F)ccc34)cc12` [Example 770, (S)-8-chloro-6-(((2-(2,2-difluoroethyl)-1-oxo-1,2-dihydroisoquinolin-5-yl)(1-(1-(trifluoromethyl)cyclopropyl)-1H-1,2,3-triazol-4-yl)methyl)amino)-4-(neopentylamino)quinoline-3-carbonitrile] gave an EC50 [1, 5] of 108 nM and an IC50 [2, 6] of 4 nM.
Compound `C[C@@H](Nc1c(C#N)cnc2c(Cl)cc(N[C@@H](c3cccnc3)c3cn(C4CCN(C(C)(C)C)CC4)nn3)cc12)c1ccccc1` [Example 259, 6-(((S)-(1-(1-(tert-butyl)piperidin-4-yl)-1H-1,2,3-triazol-4-yl)(pyridin-3-yl)methyl)amino)-8-chloro-4-(((R)-1-phenylethyl)amino)quinoline-3-carbonitrile] has an EC50 [1, 5] of 158 nM and an IC50 [2, 6] of 6 nM.
`Cn1ccc2c([C@H](Nc3cc(Cl)c4ncc(C#N)c(NCC(C)(C)C)c4c3)c3cn(C4(C5CC5)CC4)nn3)cccc2c1=O` [Example 779, (S)-6-(((1-([1,1′-bi(cyclopropan)]-1-yl)-1H-1,2,3-triazol-4-yl)(2-methyl-1-oxo-1,2-dihydroisoquinolin-5-yl)methyl)amino)-8-chloro-4-(neopentylamino)quinoline-3-carbonitrile] gave an EC50 [1, 5] of 26 nM and an IC50 [2, 6] of 3 nM.
In the case of `CC(C)(C)CNc1c(C#N)cnc2c(C#N)cc(N[C@H](c3cn(C4(C(F)F)CC4)nn3)c3ccc(F)c4cnccc34)cc12` [Example 672], the EC50 [1, 7] is reported as 22 nM and the IC50 [2, 8] is reported as 2 nM.
“(S)-6-(((1-(1,1′-bi(cyclopropan)]-1-yl)-1H- 1,2,3-triazol-4-yl)(1-methoxylsoquinolin- 5-yl)methyl)amino)-8-chloro-4- (neopentylamino)quinoline-3-carbonitrile [Example 931]” showed an EC50 [1, 9] of 134 nM and an IC50 [2, 10] of 10 nM.
For `CC(C)(C)CNc1c(C#N)cnc2c(C#N)cc(N[C@H](c3cn(C4CC4)nn3)c3csc4cnccc34)cc12` [Example 856, (S)-6-(((1-cyclopropyl-1H-1,2,3-triazol-4-yl)(thieno[2,3-c]pyridin-3-yl)methyl)amino)-4-(neopentylamino)quinoline-3,8-dicarbonitrile], the EC50 [1, 3] was 29 nM and the IC50 [2, 4] was 1 nM.
`CC(C)(C)CNc1c(C#N)cnc2c(Cl)cc(N[C@H](c3cn(C4CC4)nn3)c3cccc4cnccc34)cc12` [Example 443, (S)-8-chloro-6-(((1-cyclopropyl-1H-1,2,3-triazol-4-yl)(isoquinolin-5-yl)methyl)amino)-4-(neopentylamino)quinoline-3-carbonitrile] gave an EC50 [1, 5] of 19 nM and an IC50 [2, 6] of 1 nM.
Work on `COc1nccc2c([C@H](Nc3cc(C#N)c4ncc(C#N)c(NCC(C)(C)C)c4c3)c3cn(C4(C(F)(F)F)CC4)nn3)cccc12` [Example 812, (S)-6-(((1-methoxylsoquinolin-5-yl)(1-(1-(trifluoromethyl)cyclopropyl)-1H-1,2,3-triazol-4-yl)methyl)amino)-4-(neopentylamino)quinoline-3,8-dicarbonitrile] yielded an EC50 [1, 9] of 68 nM and an IC50 [2, 10] of 5 nM.

Source: patent US11066414B2, “Cot modulators and methods of use thereof” (Gilead Sciences, Inc., priority 2015, dated 2021)
